The text below walks through data of patent publication US20140155362A1, “BHQ-CONJUGATES, AND RELATED COMPOUNDS, METHODS OF MAKING THE SAME, AND METHODS OF USE THEREOF” (priority 2011, published 2014).

SMILES strings stand for the structures. Where “and” joins values, the source holds several entries; their conditions need not be identical. Equal values may be shown once.

What all share (assay type): physicochemical
A short description of data set [1]: Determination of absorbance maximum and molar extinction coefficient (ε) in KMOPS buffer. To be noted: for ε (molar extinction coefficient): at λmax. Here is the method:
Determination of the Molar Extinction Coefficient (ε).
A weighed portion of BHQ-O-5HT was dissolved in methanol. A measured aliquot of this solution was withdrawn and placed in KMOPS buffer (3.0 mL) and mixed thoroughly to generate a 100-μM solution of BHQ-O-5HT. The absorbance A of this solution at τmax=368 nm was measured. This method was repeated twice with different masses of BHQ-O-5HT.
Determination of the Molar Extinction Coefficient (s).
A weighed portion of BHQ-VAA was dissolved in methanol. A measured aliquot of this solution was withdrawn and placed in KMOPS buffer (3.0 mL) and mixed thoroughly to generate a 100-μM solution of BHQ-VAA. The absorbance A of this solution at λmax=368 nm was measured. This method was repeated twice with different masses of BHQ-VAA.

Data set [2] is described as follows: Determination of two-photon action cross-sections (δu) at 740 nm. Here is the method:
Determination of Two-photon Action Cross-Sections (δu).
A portion of BHQ-O-5HT was dissolved in KMOPS buffer and the concentration of the solution was found using UV-Vis absorption in conjunction with Beer's law. Aliquots (25 μL) of this solution were placed in a microcuvette (10×1×1 mm illuminated dimensions) and irradiated with a fs-pulsed and mode-locked Ti:Sapphire laser (Chameleon Ultra II, Coherent) with 740-nm light at an average power of 300 mW. Three samples were irradiated for each of the following time periods: 0, 5, 10, 20, and 40 min. The samples were compiled and analyzed by HPLC. A solution of fluorescein at pH 9.0 was prepared to act as a standard for BHQ-O-5HT because of its well-characterized 2PE cross-section (δaF=30 GM at 740 nm) and quantum yield (QF2=0.9). UV-V is absorption spectroscopy was used to correlate absorption at 488 nm to precise concentration. Aliquots (25 μL) of fluorescein solution were placed in the microcuvette and irradiated by the laser under the same conditions used for the BHQ-O-5HT solution. The fluorescence output of the solution was measured with a radiometer before and after the BHQ-O-5HT samples were irradiated and the two values were averaged. The following equation was used to calculate the two-photon action cross-section for BHQ-O-5HT:
where Np is the number of product molecules formed per second (determined by HPLC), φ is the collection efficiency of the detector (SED033 on an IL-1700, International Light) used to measure the fluorescence of fluorescein passing through the cuvette window and through a 535/545 nm bandpass filter at a right angle to the laser's beam, CF is the concentration of fluorescein, <F(t)> is the time averaged fluorescent photon flux (photons/s) of fluorescein and CS is the initial concentration of the caged compound. The measurements were compiled and the two-photon action cross-section for BHQ-O-5HT was determined to be 0.50 GM. The experiment was repeated for BHQ-N-5HT, and the two-photon action cross-section was determined to be 0.42 GM.
Determination of Two photon Action Cross-Sections (δu).
A portion of BHQ-VAA was dissolved in KMOPS buffer and the concentration of the solution was found using UV-Vis absorption in conjunction with Beer's law. Aliquots (25 μL) of this solution were placed in a microcuvette (10×1×1 mm illuminated dimensions) and irradiated with a fs-pulsed and mode-locked Ti: Sapphire laser (Chameleon Ultra II, Coherent) with 740-nm light at an average power of 300 mW. Three samples were irradiated for each of the following time periods: 0, 5, 10, 20, and 40 min. The samples were compiled and analyzed by HPLC. […] The fluorescence output of the solution was measured with a radiometer before and after the BHQ-VAA samples were irradiated and the two values were averaged. […]

Data set [3] in a line: Determination of the dark hydrolysis rate (τdark) in KMOPS. The note with it: for τdark (time constant for dark hydrolysis): 100 μM in KMOPS, stored in the dark. Here is the method: Determination of the Dark Hydrolysis Rate (τdark).
Three 100-μM solutions of BHQ-O-5HT in KMOPS were created and stored in the dark. Aliquots (20 μL) were removed periodically from each solution and analyzed by HPLC. The percents remaining for each time point for each solution were averaged and plotted versus time. A simple single exponential decay curve provided the best fit. The time constant for dark hydrolysis (τdark) was determined to be 260 h. The experiment was repeated for BHQ-N-5HT, and the time constant for dark hydrolysis (τdark) was determined to be 300 h.
Three 100-μM solutions of BHQ-VAA in KMOPS were created and stored in the dark. Aliquots (20 μL) were removed periodically from each solution and analyzed by HPLC. The percents remaining for each time point for each solution were averaged and plotted versus time. A simple single exponential decay curve provided the best fit. The time constant for dark hydrolysis (τdark) was determined to be 140 h.

The mark [4] stands for this setting: Table 1.1, KMOPS buffer, 100 μM.
[5] abbreviates: BHQ-OPh, previous unpublished work (Zhu & Dore).
The mark [6] stands for this setting: Table 2.1, KMOPS buffer, 100 μM.

Regarding `O=C(NCCc1c[nH]c2ccc(O)cc12)OCc1ccc2ccc(O)c(Br)c2n1` [BHQ-N-5HT], in data set [1] (setting [4]), the λmax was 370 nm and the “ε (molar extinction coefficient)” value was 2,100 M^−1 cm^−1. Further, the “δu (two-photon uncaging action cross-section)” value in data set [2] (Table 1.1, KMOPS) is given as 0.42 GM. Moreover, the “τdark (time constant for dark hydrolysis)” value in data set [3] (Table 1.1) is given as 300 h.

Turning to `NCCc1c[nH]c2ccc(OCc3ccc4ccc(O)c(Br)c4n3)cc12` [BHQ-O-5HT], in data set [1] (setting [4]), the λmax turned out to be 368 nm and the “ε (molar extinction coefficient)” value was 2,000 M^−1 cm^−1. The “δu (two-photon uncaging action cross-section)” value in data set [2] (Table 1.1, KMOPS) stood at 0.50 GM. The “τdark (time constant for dark hydrolysis)” value in data set [3] (Table 1.1) came to 260 h.

In data set [1] (setting [5]), `Oc1ccc2ccc(COc3ccccc3)nc2c1Br` [BHQ-OPh] displayed a ε of 3200 M⁻¹ cm⁻¹ and a λmax of 369. For the same compound, the “2-photon photolysis uncaging action cross section δu” value in data set [2] (pH 7.2 KMOPS) was found to be 0.56 GM. Further, in data set [3] (simulated physiological conditions, dark), the “time constant for hydrolysis in the dark τdark” value is on record as 95 h.

With `COc1cc(CNC(C)=O)ccc1OCc1ccc2ccc(O)c(Br)c2n1` [BHQ-VAA], in data set [1] (setting [6]), the λmax is 368 nm and 370 nm; the “ε (molar extinction coefficient)” value stood at 2700 M⁻¹ cm⁻¹. Also, the “δu (two-photon uncaging action cross-section)” value in data set [2] (Table 2.1, KMOPS) was 0.61 GM. Also, the “τdark (time constant for dark hydrolysis)” value in data set [3] (Table 2.1) is 140 h.
